Measurements reported in patent US20070203177A1, “Forms of dolasetron mesylate and processes for their preparation” (priority 2006, published 2007).
One block for each compound: values may come before it.

Test: Heat transformations of Dolasetron mesylate forms (solid-state form after heating)
Type: physicochemical

SMILES: CS(=O)(=O)O.O=C(OC1C[C@@H]2CC3C[C@H](C1)N2CC3=O)c1c[nH]c2ccccc12 (stereo partly drawn) [Form I, Dolasetron Mesylate]
HEAT TRANSFORMATION RESULT (heated at 190 °C, 30 min.): Amorphous > III

HEAT TRANSFORMATION RESULT (second TEMP./TIME) (after 160 °C, 30 min, then 160, 30 min): VII > III
SMILES: O=C(OC1CC2CC3CC(C1)N2CC3=O)c1c[nH]c2ccccc12 (stereo not drawn) [Form II, (2α,6α,8α,9αβ)-octahydro-3-oxo-2,6-methano-2H-quinolizin-8-yl-1H-indole-3-carboxylate monomethanesulfonate monohydrate, reference compound]

SMILES: CS(=O)(=O)O.O=C(OC1C[C@@H]2CC3C[C@H](C1)N2CC3=O)c1c[nH]c2ccccc12 (stereo partly drawn) [Form IV, Dolasetron mesylate]
HEAT TRANSFORMATION RESULT (heated at 160 °C, 60 min., listed as IV): VII + IV

SMILES: CS(=O)(=O)O.O=C(OC1C[C@@H]2CC3C[C@H](C1)N2CC3=O)c1c[nH]c2ccccc12 (stereo partly drawn) [Form V, Dolasetron mesylate]
HEAT TRANSFORMATION RESULT (heated at 160 °C, 60 min., listed as V): XII

SMILES: CS(=O)(=O)O.O=C(OC1C[C@@H]2CC3C[C@H](C1)N2CC3=O)c1c[nH]c2ccccc12 (stereo partly drawn) [Form VIII, Dolasetron mesylate]
HEAT TRANSFORMATION RESULT (heated at 160 °C, 30 min): XII
HEAT TRANSFORMATION RESULT (heated at 160 °C, 60 min., listed as VIII): XII
